Assays:
[1] = Oral bioavailability in Wistar rat at 10 mg/kg; format: ADME, organism-based; details: in vivo
[2] = Tmax in Wistar rat at 10 mg/kg, po; format: ADME, organism-based; set-up: dose 10 mg/kg, route oral; details: in vivo
[3] = Volume of distribution at steady state in Wistar rat at 1 mg/kg, iv; format: ADME, organism-based; set-up: dose 1 mg/kg, route intravenous; details: in vivo, read-out: Vdss
Rattus norvegicus = experiment: AUC in Wistar rat at 1 mg/kg, iv; format: ADME, organism-based, Plasma; set-up: dose 1 mg/kg, route intravenous; details: in vivo
[4] = Half life in Wistar rat at 10 mg/kg, po; format: ADME, organism-based; set-up: dose 10 mg/kg, route oral; details: in vivo

For `N#Cc1cc(O[C@@H]2C[C@H]3CC[C@@H](C2)N3)cc(-c2ncccc2C#N)c1`, the bioavailability [1] was 34%, the Tmax [2] was 1.7 h and the Vd [3] was 6.9 L/kg. The AUC (Rattus norvegicus) was 0.563 µg·h/mL and the half-life [4] was 3.2 h.
